Experimental data taken from US20250066370A1, “BICYCLIC TRIAZINE DERIVATIVES FOR THE TREATMENT OF CANCER” (DEUTSCHES KREBSFORSCHUNGSZENTRUM, priority 2022, published 2025).

Legend:
Format in all cases: cell-based
[1] = test system: BT474; test: Proliferation assay: cell line panel, BT474; details: Homo sapiens, BT-474, 96 h, breast cancer, HER2 positive, 4 days, read-out: Result Category, IC50 (mean)
Description: (§1) Human tumour cells were originally obtained from the American Type Culture Collection (ATCC), from Cell Line Services GmbH (CLS), from the Deutsche Sammlung von Mikroorganismen und Zellkulturen (DSMZ, German Collection of Microorganisms and Cell Cultures), from the Japanese Cancer Research Resources Bank (JCRB), from Public Health England, from the European Collection of Authenticated Cell Cultures (ECACC), from Asterand Biosciences, or from the National Cancer Institute (NCI). Cultivated tumour cells were plated at the density as indicated in Table 6 in 96-well multitier plates in 200 microL of their respective growth medium supplemented 10% fetal calf serum. […] Cell proliferation was determined by staining the cells with crystal violet: the cells were fixed by adding 20 microL/measuring point of an 11% glutaric aldehyde solution for 15 minutes at room temperature. […] The extinction was determined by photometry at a wavelength of 595 nm. The change of cell number, in percent, was calculated by normalization of the measured values to the extinction values of the zero-point plate (=0%) and the extinction of the untreated (0 μM) cells (=100%). […]

[2] = test system: HCC1419; test: Proliferation assay: cell line panel, HCC1419; details: Homo sapiens, 96 h, breast cancer, HER2 positive, 4 days, read-out: Result Category, IC50 (mean)
Description: as §1

[3] = test system: HCC1806; test: Proliferation assay: cell line panel, HCC1806; details: Homo sapiens, 96 h, breast cancer, triple-negative, 4 days, read-out: Result Category, IC50 (mean)
Description: as §1

[4] = test system: NCI-H1299; test: Proliferation assay: cell line panel, NCI-H1299; details: Homo sapiens, 96 h, lung cancer, non-small cell, 4 days, read-out: Result Category, IC50 (mean)
Description: as §1

[5] = test system: CAL-120; test: Proliferation assay: cell line panel, CAL-120; details: Homo sapiens, 96 h, breast cancer, triple-negative, 4 days, read-out: Result Category, IC50 (mean)
Description: as §1

[6] = test system: AU565; test: Proliferation assay: cell line panel, AU565; details: Homo sapiens, 96 h, breast cancer, HER2 positive, 4 days, read-out: Result Category, IC50 (mean)
Description: as §1

[7] = test system: HUH-7; test: Proliferation assay: cell line panel, HUH-7; details: Homo sapiens, 96 h, liver cancer, 4 days, read-out: Result Category, IC50 (mean)
Description: as §1

[8] = test system: HCC1954; test: Proliferation assay: cell line panel, HCC1954; details: Homo sapiens, 96 h, breast cancer, HER2 positive, 4 days, read-out: Result Category, IC50 (mean)
Description: as §1

[9] = test system: COV318; test: Proliferation assay: cell line panel, COV318; details: Homo sapiens, 96 h, ovarian cancer, 4 days, read-out: Result Category, IC50 (mean)
Description: as §1

IC50 [1] [µM] | IC50 [2] [µM] | IC50 [3] [µM] | IC50 [4] [µM] | IC50 [7] [µM] | IC50 [8] [µM] | Compound | IC50 [5] [µM] | IC50 [6] [µM] | IC50 [9] [µM]
0.03 to 0.1 | 0.03 to 0.1 | 0.03 to 0.1 | ≥ 0.1 | 0.03 to 0.1 | 0.03 to 0.1 | FC(F)(F)Oc1ccc(-c2cnc(CNc3nc(N4CCOCC4)nn4c(C(F)(F)F)cnc34)[nH]2)cc1 [Example 8, 2-(morpholin-4-yl)-N-({5-[4-(trifluoromethoxy)phenyl]-1H-imidazol-2-yl}methyl)-7-(trifluoromethyl)imidazo[2,1-f][1,2,4]triazin-4-amine] | 0.03 to 0.1 | ≤ 0.03 | ≥ 0.1
0.03 to 0.1 | 0.03 to 0.1 | ≥ 0.1 | ≥ 0.1 | 0.03 to 0.1 | 0.03 to 0.1 | FC(F)(F)c1ccc(-c2cnc(CNc3nc(N4CCOCC4)nn4c(C(F)(F)F)cnc34)[nH]2)cc1 [Example 7, 2-(morpholin-4-yl)-7-(trifluoromethyl)-N-({5-[4-(trifluoromethyl)phenyl]-1H-imidazol-2-yl}methyl)imidazo[2,1-f][1,2,4]triazin-4-amine] | ≥ 0.1 | 0.03 to 0.1 | ≥ 0.1
